From PubChem BioAssay (NCI)
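Step 1: Grow cells in 96-well plates. Step 2: Expose to compound for 48 hours at 5 concentrations. Step 3: Interpolate endpoints linearly; if unreached, use highest concentration. Definition used: TGI = concentration required for complete inhibition of growth.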

Key:
Experiment in all cases: DTP human tumour cell line panel, 48 h
CAKI-1 renal = test system: CAKI-1 renal
K-562 leukemia = test system: K-562 leukemia
SNB-75 CNS = test system: SNB-75 CNS
UO-31 renal = test system: UO-31 renal
NCI-H522 lung = test system: NCI-H522 lung
ACHN renal = test system: ACHN renal
RPMI-8226 leukemia = test system: RPMI-8226 leukemia
UACC-257 melanoma = test system: UACC-257 melanoma
SK-MEL-28 melanoma = test system: SK-MEL-28 melanoma
COLO 205 colon = test system: COLO 205 colon
SNB-19 CNS = test system: SNB-19 CNS
SK-MEL-2 melanoma = test system: SK-MEL-2 melanoma
T-47D breast = test system: T-47D breast
OVCAR-4 ovarian = test system: OVCAR-4 ovarian
SF-539 CNS = test system: SF-539 CNS
HCT-15 colon = test system: HCT-15 colon
SF-295 CNS = test system: SF-295 CNS
OVCAR-8 ovarian = test system: OVCAR-8 ovarian
HCC-2998 colon = test system: HCC-2998 colon
SK-MEL-5 melanoma = test system: SK-MEL-5 melanoma
MDA-MB-435 = test system: MDA-MB-435
IGROV1 ovarian = test system: IGROV1 ovarian
TK-10 renal = test system: TK-10 renal
CCRF-CEM leukemia = test system: CCRF-CEM leukemia
NCI-H226 lung = test system: NCI-H226 lung
NCI-H23 lung = test system: NCI-H23 lung
HT29 colon = test system: HT29 colon
OVCAR-5 ovarian = test system: OVCAR-5 ovarian
U251 CNS = test system: U251 CNS
PC-3 prostate = test system: PC-3 prostate
SN12C renal = test system: SN12C renal
OVCAR-3 ovarian = test system: OVCAR-3 ovarian
DU-145 prostate = test system: DU-145 prostate
SK-OV-3 ovarian = test system: SK-OV-3 ovarian
HCT-116 colon = test system: HCT-116 colon
MCF7 breast = test system: MCF7 breast
MOLT-4 leukemia = test system: MOLT-4 leukemia
BT-549 breast = test system: BT-549 breast
HOP-62 NSCLC = test system: HOP-62 NSCLC
MALME-3M melanoma = test system: MALME-3M melanoma
SW-620 colon = test system: SW-620 colon
KM12 colon = test system: KM12 colon
MDA-MB-231 breast = test system: MDA-MB-231 breast
A549 NSCLC = test system: A549 NSCLC
786-0 renal = test system: 786-0 renal
LOX IMVI melanoma = test system: LOX IMVI melanoma
RXF 393 renal = test system: RXF 393 renal
UACC-62 melanoma = test system: UACC-62 melanoma
SF-268 CNS = test system: SF-268 CNS
M14 melanoma = test system: M14 melanoma
HS 578T breast = test system: HS 578T breast
EKVX NSCLC = test system: EKVX NSCLC

Structure (SMILES): CC(C)(C)c1cc(C(=O)Nc2cc(Br)c(Br)cc2S(N)(=O)=O)cc(C(C)(C)C)c1O
- TGI (CAKI-1 renal): 22.8 µM
- TGI (K-562 leukemia): 25.7 µM
- TGI (SNB-75 CNS): 21.5 µM
- TGI (UO-31 renal): 24.7 µM
- TGI (NCI-H522 lung): 24.3 µM
- TGI (ACHN renal): 23.4 µM
- TGI (RPMI-8226 leukemia): > 100 µM
- TGI (UACC-257 melanoma): 33.1 µM
- TGI (SK-MEL-28 melanoma): 26.2 µM
- TGI (COLO 205 colon): 19.1 µM
- TGI (SNB-19 CNS): 31.1 µM
- TGI (SK-MEL-2 melanoma): 22.7 µM
- TGI (T-47D breast): 15.6 µM
- TGI (OVCAR-4 ovarian): 28.7 µM
- TGI (SF-539 CNS): 32.7 µM
- TGI (HCT-15 colon): 16.8 µM
- TGI (SF-295 CNS): 27.7 µM
- TGI (OVCAR-8 ovarian): 26.6 µM
- TGI (HCC-2998 colon): 18.1 µM
- TGI (SK-MEL-5 melanoma): 25 µM
- TGI (MDA-MB-435): 24.7 µM
- TGI (IGROV1 ovarian): 26.6 µM
- TGI (TK-10 renal): 25.5 µM
- TGI (CCRF-CEM leukemia): 26.6 µM
- TGI (NCI-H226 lung): 29.3 µM
- TGI (NCI-H23 lung): 40 µM
- TGI (HT29 colon): 16.2 µM
- TGI (OVCAR-5 ovarian): 24.9 µM
- TGI (U251 CNS): 26.6 µM
- TGI (PC-3 prostate): 22.9 µM
- TGI (SN12C renal): 21.2 µM
- TGI (OVCAR-3 ovarian): 21.1 µM
- TGI (DU-145 prostate): 29.2 µM
- TGI (SK-OV-3 ovarian): 31.3 µM
- TGI (HCT-116 colon): 20.5 µM
- TGI (MCF7 breast): 18.8 µM
- TGI (MOLT-4 leukemia): 18.8 µM
- TGI (BT-549 breast): 25.4 µM
- TGI (HOP-62 NSCLC): 35.3 µM
- TGI (MALME-3M melanoma): 26.6 µM
- TGI (SW-620 colon): 21.4 µM
- TGI (KM12 colon): 36.4 µM
- TGI (MDA-MB-231 breast): 26.4 µM
- TGI (A549 NSCLC): 21.3 µM
- TGI (786-0 renal): 23 µM
- TGI (LOX IMVI melanoma): 19.4 µM
- TGI (RXF 393 renal): 23.1 µM
- TGI (UACC-62 melanoma): 23.1 µM
- TGI (SF-268 CNS): 29 µM
- TGI (M14 melanoma): 35.9 µM
- TGI (HS 578T breast): 30.5 µM
- TGI (EKVX NSCLC): 26.2 µM
